Measured values: US8703961B2, “Thiazole derivatives for the treatment of diseases such as cancer” (Merck Patent GmbH, priority 2009, dated 2014)
pIC50: −log10 of the molar value.

Columns and labels:
Assay in all cases: filter binding kinase assay
Format in all cases: biochemical
[1] = target: T1, TGFBR1 (Homo sapiens, UniProt P36897); conditions: derived from % inhibition at 1 μM
T1 construct: purchased
T1 sequence (P36897 34-503): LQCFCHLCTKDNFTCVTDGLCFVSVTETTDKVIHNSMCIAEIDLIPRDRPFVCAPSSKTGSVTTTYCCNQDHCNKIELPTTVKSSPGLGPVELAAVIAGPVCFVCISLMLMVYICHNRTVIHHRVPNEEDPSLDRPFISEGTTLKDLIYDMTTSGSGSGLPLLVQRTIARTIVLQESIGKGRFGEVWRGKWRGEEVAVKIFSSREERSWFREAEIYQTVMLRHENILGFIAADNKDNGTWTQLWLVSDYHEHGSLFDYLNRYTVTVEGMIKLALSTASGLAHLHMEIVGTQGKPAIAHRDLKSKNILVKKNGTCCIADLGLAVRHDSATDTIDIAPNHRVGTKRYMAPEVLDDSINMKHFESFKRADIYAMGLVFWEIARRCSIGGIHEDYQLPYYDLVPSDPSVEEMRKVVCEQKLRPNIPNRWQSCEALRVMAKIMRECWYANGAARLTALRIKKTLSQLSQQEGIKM
Procedure: (§1) All kinase assays were carried out using the Multidrop 384 from Thermo-Fisher at room temperature in a total assay volume of 25.5 μl. 15 μl of an enzyme mix comprising enzyme and substrate in buffer are added to the test batch comprising either 0.5 μl of test substance, DMSO control or empty container. Test substances are pre-incubated in the presence of the enzyme and substrate for 5 minutes before the reaction is initiated by addition of 10 μl of ATP (concentration kinase-dependent of […]). The reaction is terminated by addition of 5 μl of orthophosphoric acid (50 mM). The test containers are then transferred onto P81 Unifilter plates by means of a “Packard Harvester” and dried in air. The dry Unifilter plates are sealed after the addition of MicroScint O, and the radioactivity is determined in a Packard Topcount NXT.

[2] = target: T2, MAP2K1 (MKK1) (Homo sapiens, UniProt Q02750); conditions: for pIC50: derived from % inhibition at 1 μM
T2 construct: purchased
T2 sequence (Q02750 whole entry, species assumed): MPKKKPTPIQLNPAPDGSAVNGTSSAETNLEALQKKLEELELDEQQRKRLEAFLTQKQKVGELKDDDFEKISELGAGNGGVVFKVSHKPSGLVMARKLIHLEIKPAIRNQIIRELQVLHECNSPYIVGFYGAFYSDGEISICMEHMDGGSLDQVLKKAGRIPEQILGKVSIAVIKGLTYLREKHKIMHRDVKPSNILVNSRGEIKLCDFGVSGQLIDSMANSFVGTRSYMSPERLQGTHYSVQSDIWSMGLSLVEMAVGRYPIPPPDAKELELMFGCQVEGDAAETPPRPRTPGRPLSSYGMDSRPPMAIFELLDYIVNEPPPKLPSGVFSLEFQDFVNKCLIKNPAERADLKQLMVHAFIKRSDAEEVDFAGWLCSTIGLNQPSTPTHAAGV
Procedure: as §1

[3] = target: T3, MAPKAPK2 (Homo sapiens, UniProt P49137); conditions: derived from % inhibition at 1 μM
T3 construct: purchased
T3 sequence (P49137 whole entry, species assumed): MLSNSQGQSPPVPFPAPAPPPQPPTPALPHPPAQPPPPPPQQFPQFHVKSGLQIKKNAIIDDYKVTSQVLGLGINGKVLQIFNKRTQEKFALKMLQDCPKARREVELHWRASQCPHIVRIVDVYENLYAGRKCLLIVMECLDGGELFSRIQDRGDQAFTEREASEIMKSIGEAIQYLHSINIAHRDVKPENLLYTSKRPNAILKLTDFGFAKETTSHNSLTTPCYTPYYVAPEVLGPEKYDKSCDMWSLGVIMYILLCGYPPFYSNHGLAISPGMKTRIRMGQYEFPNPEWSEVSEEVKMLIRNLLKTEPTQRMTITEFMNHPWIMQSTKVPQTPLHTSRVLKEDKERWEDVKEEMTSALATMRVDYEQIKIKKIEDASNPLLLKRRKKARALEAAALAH
Procedure: as §1

[4] = target: T4, MAP4K2 (GCK) (Homo sapiens, UniProt Q12851); conditions: for pIC50: derived from % inhibition at 1 μM
T4 construct: purchased
T4 sequence (Q12851 1-820): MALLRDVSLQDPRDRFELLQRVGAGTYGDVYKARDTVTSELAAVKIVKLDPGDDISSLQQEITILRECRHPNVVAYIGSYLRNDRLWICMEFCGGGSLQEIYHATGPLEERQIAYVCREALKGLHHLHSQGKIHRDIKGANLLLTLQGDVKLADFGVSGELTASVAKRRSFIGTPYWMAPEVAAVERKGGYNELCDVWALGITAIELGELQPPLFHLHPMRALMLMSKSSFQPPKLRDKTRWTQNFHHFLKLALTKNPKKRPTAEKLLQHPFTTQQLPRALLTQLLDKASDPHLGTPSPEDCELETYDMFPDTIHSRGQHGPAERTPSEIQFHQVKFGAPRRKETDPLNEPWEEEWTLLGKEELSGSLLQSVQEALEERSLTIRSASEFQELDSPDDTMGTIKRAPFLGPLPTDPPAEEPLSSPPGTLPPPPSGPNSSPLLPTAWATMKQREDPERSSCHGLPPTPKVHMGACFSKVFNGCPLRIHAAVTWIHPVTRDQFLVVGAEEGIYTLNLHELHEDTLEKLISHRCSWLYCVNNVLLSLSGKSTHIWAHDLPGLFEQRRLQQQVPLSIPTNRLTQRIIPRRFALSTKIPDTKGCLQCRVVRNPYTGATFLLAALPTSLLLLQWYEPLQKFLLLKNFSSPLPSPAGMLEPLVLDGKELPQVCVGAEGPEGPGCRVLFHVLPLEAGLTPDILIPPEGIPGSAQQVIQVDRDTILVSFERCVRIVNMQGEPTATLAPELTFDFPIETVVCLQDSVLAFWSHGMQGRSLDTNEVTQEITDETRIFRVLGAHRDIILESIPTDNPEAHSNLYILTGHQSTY
Procedure: as §1

[5] = target: T5, SRC (Homo sapiens, UniProt P12931); conditions: derived from % inhibition at 1 μM
T5 construct: purchased
T5 sequence (P12931 whole entry, species assumed): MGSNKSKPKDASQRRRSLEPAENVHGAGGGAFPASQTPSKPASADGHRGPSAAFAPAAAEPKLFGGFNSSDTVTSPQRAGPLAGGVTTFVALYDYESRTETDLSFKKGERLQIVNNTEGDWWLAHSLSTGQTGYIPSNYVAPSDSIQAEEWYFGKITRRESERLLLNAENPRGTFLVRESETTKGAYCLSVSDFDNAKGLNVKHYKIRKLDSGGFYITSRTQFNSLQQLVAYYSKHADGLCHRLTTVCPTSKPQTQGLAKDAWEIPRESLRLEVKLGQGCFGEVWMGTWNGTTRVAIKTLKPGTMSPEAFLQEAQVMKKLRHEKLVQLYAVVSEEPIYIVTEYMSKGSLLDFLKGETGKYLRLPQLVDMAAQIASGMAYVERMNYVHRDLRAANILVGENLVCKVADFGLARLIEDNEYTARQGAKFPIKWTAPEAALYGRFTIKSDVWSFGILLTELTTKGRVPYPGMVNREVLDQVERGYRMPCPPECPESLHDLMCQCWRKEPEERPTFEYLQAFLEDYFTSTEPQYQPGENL
Procedure: as §1

[6] = target: T6, EEF2K (Homo sapiens, UniProt O00418); conditions: derived from % inhibition at 1 μM
T6 construct: purchased
Procedure: as §1

[7] = target: T7, SRPK1 (Homo sapiens, UniProt Q96SB4); conditions: derived from % inhibition at 1 μM
T7 construct: purchased
T7 sequence (Q96SB4 whole entry, species assumed): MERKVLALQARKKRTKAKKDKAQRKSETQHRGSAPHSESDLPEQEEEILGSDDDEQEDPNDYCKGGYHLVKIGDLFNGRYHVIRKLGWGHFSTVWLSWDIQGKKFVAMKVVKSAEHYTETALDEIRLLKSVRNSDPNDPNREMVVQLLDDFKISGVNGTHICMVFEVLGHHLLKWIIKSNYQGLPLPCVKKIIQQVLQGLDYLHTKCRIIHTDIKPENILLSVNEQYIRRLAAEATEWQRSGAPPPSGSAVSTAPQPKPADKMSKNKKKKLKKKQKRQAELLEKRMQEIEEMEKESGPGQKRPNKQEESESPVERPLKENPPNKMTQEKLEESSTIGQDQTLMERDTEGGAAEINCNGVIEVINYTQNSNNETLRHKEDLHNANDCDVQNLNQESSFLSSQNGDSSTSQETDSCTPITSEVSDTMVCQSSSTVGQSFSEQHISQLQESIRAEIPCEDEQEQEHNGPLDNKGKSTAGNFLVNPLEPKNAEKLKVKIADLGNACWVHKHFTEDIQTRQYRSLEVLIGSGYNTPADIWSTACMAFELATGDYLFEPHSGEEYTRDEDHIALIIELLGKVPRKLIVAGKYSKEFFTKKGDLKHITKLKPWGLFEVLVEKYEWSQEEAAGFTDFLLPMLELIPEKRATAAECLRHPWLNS
Procedure: as §1

[8] = target: T8, CSK (Homo sapiens, UniProt P41240); conditions: derived from % inhibition at 1 μM
T8 construct: purchased
T8 sequence (P41240 whole entry, species assumed): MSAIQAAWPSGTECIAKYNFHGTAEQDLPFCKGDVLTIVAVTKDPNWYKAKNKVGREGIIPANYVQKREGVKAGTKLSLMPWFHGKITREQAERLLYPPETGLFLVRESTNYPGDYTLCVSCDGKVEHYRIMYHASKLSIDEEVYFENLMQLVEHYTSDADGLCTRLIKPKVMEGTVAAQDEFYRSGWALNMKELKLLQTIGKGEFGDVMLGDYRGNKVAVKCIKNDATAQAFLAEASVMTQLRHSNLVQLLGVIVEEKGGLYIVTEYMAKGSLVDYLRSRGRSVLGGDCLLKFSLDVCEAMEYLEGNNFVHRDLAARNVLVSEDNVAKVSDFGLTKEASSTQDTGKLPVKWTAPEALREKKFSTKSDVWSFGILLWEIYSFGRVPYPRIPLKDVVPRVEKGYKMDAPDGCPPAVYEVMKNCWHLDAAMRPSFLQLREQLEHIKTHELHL
Procedure: as §1

[9] = target: T9, MAPK1 (Homo sapiens, UniProt P28482); conditions: derived from % inhibition at 1 μM; first MAPK1 line
T9 construct: purchased
T9 sequence (P28482 whole entry, species assumed): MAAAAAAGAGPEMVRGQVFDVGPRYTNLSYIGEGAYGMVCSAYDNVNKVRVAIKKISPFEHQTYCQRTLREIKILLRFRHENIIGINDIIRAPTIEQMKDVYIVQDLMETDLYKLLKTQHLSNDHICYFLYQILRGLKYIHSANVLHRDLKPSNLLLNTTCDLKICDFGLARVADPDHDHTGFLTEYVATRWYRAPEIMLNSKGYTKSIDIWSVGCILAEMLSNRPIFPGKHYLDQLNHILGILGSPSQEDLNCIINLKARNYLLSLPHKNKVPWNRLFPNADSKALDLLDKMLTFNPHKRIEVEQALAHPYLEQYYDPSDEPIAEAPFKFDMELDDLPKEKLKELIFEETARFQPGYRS
Procedure: as §1

[10] = target: T10, AURKA (Aurora A) (Homo sapiens, UniProt O14965); conditions: for pIC50: derived from % inhibition at 1 μM; for remaining activity at 1 µM: read-out: residual kinase activity Aurora A
T10 construct: purchased
T10 sequence (O14965 1-403): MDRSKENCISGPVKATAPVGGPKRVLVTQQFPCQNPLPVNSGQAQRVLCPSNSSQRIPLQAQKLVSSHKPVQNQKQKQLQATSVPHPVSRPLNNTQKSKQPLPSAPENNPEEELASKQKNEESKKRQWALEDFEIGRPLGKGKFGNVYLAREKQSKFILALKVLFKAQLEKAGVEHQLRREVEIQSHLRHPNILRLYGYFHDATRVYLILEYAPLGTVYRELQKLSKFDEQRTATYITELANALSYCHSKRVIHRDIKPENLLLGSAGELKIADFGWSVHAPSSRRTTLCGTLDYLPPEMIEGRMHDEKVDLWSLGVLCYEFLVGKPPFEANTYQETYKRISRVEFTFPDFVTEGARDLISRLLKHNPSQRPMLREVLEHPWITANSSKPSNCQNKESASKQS
Procedure: as §1

[11] = target: T11, MAPK12 (Homo sapiens, UniProt P53778); conditions: derived from % inhibition at 1 μM
T11 construct: purchased
T11 sequence (P53778 1-367): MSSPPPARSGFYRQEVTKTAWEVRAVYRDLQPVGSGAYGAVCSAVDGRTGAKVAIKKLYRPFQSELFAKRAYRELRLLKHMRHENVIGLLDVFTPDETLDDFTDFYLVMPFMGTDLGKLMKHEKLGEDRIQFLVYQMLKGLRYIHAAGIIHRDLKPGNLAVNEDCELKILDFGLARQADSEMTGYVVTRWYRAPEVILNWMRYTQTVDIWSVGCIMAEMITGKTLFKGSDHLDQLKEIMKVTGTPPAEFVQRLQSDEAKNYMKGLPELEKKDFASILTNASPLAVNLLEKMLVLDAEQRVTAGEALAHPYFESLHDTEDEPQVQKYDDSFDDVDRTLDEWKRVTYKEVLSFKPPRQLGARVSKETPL
Procedure: as §1

Compound | pIC50 [1] | pIC50 [2] | pIC50 [3] | pIC50 [4] | pIC50 [5] | pIC50 [6] | pIC50 [7] | pIC50 [8] | pIC50 [9] | pIC50 [10] | remaining activity at 1 µM [10] [%] | pIC50 [11] | remaining activity at 1 µM ([2]; read-out: residual kinase activity MKK1) [%] | remaining activity at 1 µM ([4]; read-out: residual kinase activity GCK) [%]
c1ccc(Cc2c[nH]c3ncsc23)cc1 [Compound A7, 6-benzyl-4H-pyrrolo[2,3-d]thiazole] | 4.00 to 5.00 | 5.00 to 6.00 | < 6.00 | 5.00 to 6.00 | 5.00 to 6.00 | 4.00 to 5.00 | 4.00 to 5.00 | 5.00 to 6.00 | < 6.00 | 6.00 to 8.00 | 33 | < 6.00 |  | 
Nc1ncsc1C#Cc1cnc2[nH]ccc2c1 [Compound A22, 5-(1H-pyrrolo[2,3-b]pyridin-5-ylethynyl)thiazol-4-ylamine] | 4.00 to 5.00 | 6.00 to 8.00 | < 6.00 | 6.00 to 8.00 | 4.00 to 5.00 | 4.00 to 5.00 | < 6.00 | 4.00 to 5.00 | 4.00 to 5.00 | 6.00 to 8.00 | 39 | 5.00 to 6.00 | 43 | 31
CC(C)(C)OC(=O)Nc1nc(-c2ccncc2)sc1C#CCN1CCOCC1 [Compound A25, tert-butyl[5-(3-morpholin-4-ylprop-1-ynyl)-2-pyridin-4-ylthiazol-4-yl]-carbamate] | 5.00 to 6.00 | 5.00 to 6.00 | < 6.00 | < 6.00 | 5.00 to 6.00 | < 6.00 | < 6.00 | < 6.00 | < 6.00 | < 6.00 |  | 4.00 to 5.00 |  | 
CC(C)(C)OC(=O)Nc1ncsc1C#CCN1C(=O)c2ccccc2C1=O [Compound A26, tert-butyl{5-[3-(1,3-dioxo-1,3-dihydroisoindol-2-yl)prop-1-ynyl]-thiazol-4-yl}carbamate] | 4.00 to 5.00 | 5.00 to 6.00 | 4.00 to 5.00 | 5.00 to 6.00 | 4.00 to 5.00 | 4.00 to 5.00 | < 6.00 | 4.00 to 5.00 | 4.00 to 5.00 | 5.00 to 6.00 |  | 4.00 to 5.00 |  | 
Nc1ncsc1C#Cc1cccc(O)c1 [Compound A27, 3-(4-aminothiazol-5-ylethynyl)phenol] | 5.00 to 6.00 | < 6.00 | 4.00 to 5.00 | 5.00 to 6.00 | 5.00 to 6.00 | 5.00 to 6.00 | 5.00 to 6.00 | 4.00 to 5.00 | 5.00 to 6.00 | 5.00 to 6.00 |  | 5.00 to 6.00 |  | 
